Measurements: the NIST ThermoML archive (doi:10.1016/j.fluid.2014.06.021)
± gives the expanded uncertainty stated by the source.

Conditions: 101.33 kPa, Liquid, Vibrating tube method

C[n+]1ccn(CCCCS(=O)(=O)O)c1.O=S(=O)([N-]S(=O)(=O)C(F)(F)F)C(F)(F)F
Conditions	mass density [kg/m3]
298.15 K	1577 ± 2
299.45 K	1575.8 ± 2.3
300.75 K	1574.9 ± 2.3
302.15 K	1573.7 ± 2.3
303.45 K	1572.7 ± 2.3
304.75 K	1571.5 ± 2.3
305.85 K	1570.5 ± 2.3
307.15 K	1569.2 ± 2.3
308.65 K	1568 ± 2
310.35 K	1566.7 ± 2.2
311.75 K	1565.5 ± 2.2
313.05 K	1564.3 ± 2.2
314.45 K	1563.2 ± 2.2
315.85 K	1562 ± 2
317.25 K	1560.9 ± 2.2
318.75 K	1559.8 ± 2.2
320.05 K	1558.8 ± 2.2
321.45 K	1557.7 ± 2.2
322.85 K	1556.4 ± 2.2
324.65 K	1554.8 ± 2.2
326.65 K	1553.4 ± 2.2
328.45 K	1551.8 ± 2.2
338.55 K	1543.9 ± 2.2
343.5 K	1539.7 ± 2.2

C[n+]1ccn(CCCCS(=O)(=O)O)c1.O=S(=O)([O-])C(F)(F)F
Conditions	mass density [kg/m3]
298.15 K	1478.4 ± 2
299.45 K	1478 ± 2
300.75 K	1477 ± 2
302.15 K	1476.1 ± 2
303.45 K	1475.3 ± 2
304.75 K	1474.7 ± 2
305.85 K	1473.8 ± 2
307.15 K	1472.8 ± 2
308.65 K	1472 ± 2
310.35 K	1470.9 ± 2
311.75 K	1470.1 ± 2
313.05 K	1469.3 ± 2
314.45 K	1468.2 ± 2
315.85 K	1467.3 ± 2
317.25 K	1466.3 ± 2
318.75 K	1465.6 ± 2
320.05 K	1464.8 ± 2
321.45 K	1463.7 ± 2
322.85 K	1462.7 ± 1.9
324.65 K	1461.5 ± 1.9
326.65 K	1461.3 ± 1.9
328.45 K	1460.2 ± 1.9
338.55 K	1453.7 ± 1.9
343.5 K	1450.6 ± 1.9

C[n+]1ccn(CCCCS(=O)(=O)O)c1.O=S(=O)([O-])O [1-methyl-3-(4-sulfobutyl)-imidazolium hydrogensulfate]
Conditions	mass density [kg/m3]
298.15 K	1437.7 ± 1.9
299.45 K	1436.9 ± 1.9
300.75 K	1436.3 ± 1.9
302.15 K	1435.4 ± 1.9
303.45 K	1434.8 ± 1.9
304.75 K	1434 ± 2
305.85 K	1433.3 ± 1.9
307.15 K	1432.4 ± 1.9
308.65 K	1431.7 ± 1.9
310.35 K	1430.8 ± 1.9
311.75 K	1430 ± 2
313.05 K	1429.3 ± 1.9
314.45 K	1428.5 ± 1.9
315.85 K	1427.8 ± 1.9
317.25 K	1426.9 ± 1.8
318.75 K	1426.4 ± 1.8
320.05 K	1425.8 ± 1.8
321.45 K	1424.7 ± 1.8
322.85 K	1423.9 ± 1.8
324.65 K	1423.2 ± 1.8
326.65 K	1422.1 ± 1.8
328.45 K	1421.2 ± 1.8
338.55 K	1414.5 ± 1.8
343.5 K	1411.7 ± 1.8
